{
  "source": "patent US6399583B1",
  "about": "“Hybrid anthracyclines from genetically engineered streptomyces galilaeus strains, process for production and uses thereof” (Galilaeus Oy, priority 1998, dated 2002)",
  "key": {"[1]": {"system": "MES-SA human uterine sarcoma cells", "experiment": "Cytotoxicity assay, luminescence ATP detection, MES-SA", "format": "cell-based", "conditions": "three days incubation, ATP content, highest concentration 10^-5 M, read-out: ED50 (nM) MES-SA", "experimental": "(§1) The cytotoxicities of the new anthracyclines were tested in vitro with two cell lines: human uterine sarcomas MES-SA (CRL-1976; American Type Culture Collection (ATCC), Rockville, Md., USA) and MES-SA/D×5 (CRL-1977; ATCC, Rockville, Md., USA). MES-SA/D×5 has been developed by growing MES-SA cells in increasing concentrations of doxorubicin (Harker and Sikic, 1985).\n(§2) Monolayer cultures were grown in McCoy's 5A medium with L-glutamine (Gibco BRL) supplemented with 10% FBS (Foetal Bovine Serum, Gibco BRL). No antibiotics were added. As the resistance is stable for at least 20 passages, the MES-SA/D×5 cells were grown without anthracycline selection (Harker and Sikic, 1985). Cells were maintained at 37° C. with 5% CO2 and subcultured every 3-5 days.\n(§3) The cytotoxicity tests were performed in 96-well microtiter plates (sterile white plates with clear bottom, Corning Costar Corporation, Cambridge, Mass., USA). The anthracyclines were pipetted into the plates in 10 μl of ethanol, pure ethanol was used for control plates. Daunorubicin and aclarubicin were used as positive controls. When the ethanol had evaporated, the cells were seeded into the plates in 100 μl of appropriate medium. The number of cells seeded per well was 2500 with MES-SA, 3000 with MES-SA/D×5, 3000 with LL/2, 2000 with B16-F0 and B16-F1, 2000 with KLN-205 and 8000 with MLTC-1. The ATP content of the cells was measured after incubating the cells for three days at 37° C. with 5% CO2.\n(§4) The growth medium was removed by turning the plates over, and 200 μl of ATP extraction reagent, Somalyze, were added to the wells. The plates were then incubated for 30 minutes at room temperature. The ATP measurement was performed with Luminoskan luminometer (Labsystems Oy, Helsinki, Finland) at 22° C. 20 μl of ATP monitoring reagent containing luciferin and luciferase was dispensed, and an integral measurement of 10 s with 2 s lag time was performed for each well. All reagents used were supplied by Bio-Orbit Oy, Turku, Finland.\n(§5) The direct luminometer output (in relative light units, RLUS) was used to calculate the cytotoxic effect. This light signal is directly proportional to the amount of […] in a wide range (determined with Bio-Orbit ATP standard, data not shown). On the other hand, the amount of ATP is directly proportional to the amount of living cells (Kangas et al., 1984). The results are expressed as percentages of the control value of untreated cells. An IC50 value (the drug concentration resulting to an ATP signal of 50% of the untreated control signal) was graphically estimated from the % of control vs. drug concentration plot."}, "[2]": {"system": "KLN-205 lung squamous cell carcinoma", "experiment": "Cytotoxicity assay, ATP detection, KLN-205", "format": "cell-based, mouse", "conditions": "KLN-205 cells in vitro, read-out: ED50 KLN-205", "experimental": "as §3, §4, §5\n(§6) H075-4a was also tested with several mouse cell lines in vitro (all were purchased from ATCC, Rockville, Md., USA): Lewis lung carcinoma (LL/2) (CRL-1642), B16-F0 melanoma (CRL-6322), B16-F1 melanoma (CRL-6323), KLN-205 lung squamous cell carcinoma (CRL-1453) and MLTC-1 leydig cell tumor (CRL-2065) using daunomycin, aclarubicin and H075-1a (MA 144U1) as references.\n(§7) All cells grew as monolayers and were cultured at 37° C. with 5% CO2 according to ATCC standard instructions for each cell line: LL/2 in Dulbecco's modified Eagle's medium with 4.5 g/l glucose and 10% FCS, B16-F0 and B16-F1 in MEM (Eagle) in Earle's BSS with non-essential amino acids and 10% FCS, KLN-205 in MEM (Eagle) in Earle's BSS with non-essential amino acids and 10% FCS, MLTC-1 in RPMI 1640 with 25 mM HEPES and 10% FBS. All media were purchased from Gibco BRL, the serum was Gibco BRL Foetal Bovine Serum. […]"}, "P388 leukemia": {"system": "P388 leukemia", "experiment": "Cytotoxic activity in vivo: P388 leukemia model", "set-up": "species or system mice", "conditions": "10^6 P388 cells i.p. day 0", "source_text": "P388 leukemia was maintained by serial intraperitoneal (i.p.) transplantations in DBA/2JBom female mice purchased from M & B A/S, Ry, Denmark. The animals were maintained at the facilities of Central Animal Laboratory, University of Turku. The management of the animal unit is based on and followed the guidelines: “European Convention for the protection of Vertebrate Animals used for Experimental and other Scientific Purposes, European Treaty Series No. 123 (EU No. 609/86), Official Journal of European Communities No. L 358, Strasbourg Nov. 24, 1986”, and “The Statute No. 1360/90 of the Finnish Law, Helsinki Dec. 21, 1990: Asetus kokeellisiin ja muihin tieteellisiin tarkoituksiin käytettävien selkärankaisten eläinten suojelemiseksi tehdyn eurooppalaisen yleissopimuksen voimaansaattamisesta. Suomen s{umlaut over (aa)}doskokoelma.”\nThe in vivo tests were started by injecting 10^6 P388 cells suspended in Dulbecco's phosphate buffered saline i.p. in mice on day 0. Groups of 3 mice were used. The drugs were administered i.p. on day 1 on the basis of individual body weight. The control group received vehicle (10% ethanol in Dulbecco's phosphate buffered saline)."}, "B16-F0 melanoma": {"system": "B16-F0 melanoma", "experiment": "Cytotoxicity assay, ATP detection, B16-F0", "format": "cell-based, mouse", "conditions": "B16-F0 cells in vitro, read-out: ED50 B16-F0", "experimental": "as §3, §4, §5, §6, §7"}, "[3]": {"system": "MES-SA/D×5 uterine sarcoma cells (doxorubicin-resistant, MDR)", "experiment": "Cytotoxicity assay, luminescence ATP detection, MES-SA/D×5", "format": "cell-based, human", "conditions": "MES-SA/D×5 cells, three days incubation, ATP content, highest concentration 10^-5 M, read-out: ED50 (nM) MES-SA/D × 5", "experimental": "as §1, §2, §3, §4, §5"}, "B16-F1 melanoma": {"system": "B16-F1 melanoma", "experiment": "Cytotoxicity assay, ATP detection, B16-F1", "format": "cell-based, mouse", "conditions": "B16-F1 cells in vitro, read-out: ED50 B16-F1", "experimental": "as §3, §4, §5, §6, §7"}, "[4]": {"system": "Lewis lung carcinoma (LL/2)", "experiment": "Cytotoxicity assay, ATP detection, LL/2", "format": "cell-based, mouse", "conditions": "LL/2 cells in vitro, read-out: ED50 LL/2", "experimental": "as §3, §4, §5, §6, §7"}},
  "note": "Read-outs that look alike come from different tables or passages of the source.",
  "data": [
    {"molecule": "CCC1(O)CC(OC2CC(N(C)C)C(OC3CC(O)C(OC4CC(O)C(O)C(C)O4)C(C)O3)C(C)O2)c2c(O)c3c(c(O)c2C1C(=O)OC)C(=O)c1cccc(O)c1C3=O", "note": "(centres unmarked) [Compound H075-4a]", "values": [
      {"measurement": "EC50", "setting": "[1]", "value": 1, "unit": "nM"},
      {"measurement": "EC50", "setting": "[2]", "value": 5, "unit": "nM"},
      {"measurement": "Median survival days (range)", "setting": "P388 leukemia; 1 mg/kg i.p. on day 1", "value": "14 (13-15) days"},
      {"measurement": "Median survival days (range)", "setting": "P388 leukemia; 2 mg/kg i.p. on day 1", "value": "14 (13-16) days"},
      {"measurement": "Median survival days (range)", "setting": "P388 leukemia; 4 mg/kg i.p. on day 1", "value": "15 (13-15) days"},
      {"measurement": "Median survival days (range)", "setting": "P388 leukemia; 6 mg/kg i.p. on day 1", "value": "15 (15-16) days"},
      {"measurement": "EC50", "setting": "B16-F0 melanoma", "value": 2, "unit": "nM"},
      {"measurement": "EC50", "setting": "[3]", "value": 50, "unit": "nM"},
      {"measurement": "EC50", "setting": "B16-F1 melanoma", "value": 2, "unit": "nM"},
      {"measurement": "EC50", "setting": "[4]", "value": 8, "unit": "nM"}
    ]},
    {"molecule": "COc1cccc2c1C(=O)c1c(O)c3c(c(O)c1C2=O)C[C@@](O)(C(C)=O)C[C@@H]3O[C@H]1C[C@H](N)[C@H](O)[C@H](C)O1", "note": "[Daunorubicin]", "values": [
      {"measurement": "EC50", "setting": "[1]; Homo sapiens, 72 h", "value": 8, "unit": "nM"},
      {"measurement": "EC50", "setting": "[2]; Mus musculus", "value": 90, "unit": "nM"},
      {"measurement": "Median survival days (range)", "setting": "P388 leukemia; 4 mg/kg i.p. on day 1", "value": "14 (14-16) days"},
      {"measurement": "EC50", "setting": "B16-F0 melanoma; Mus musculus, B16F0", "value": 20, "unit": "nM"},
      {"measurement": "EC50", "setting": "[3]; Homo sapiens, 72 h", "value": 220, "unit": "nM"},
      {"measurement": "EC50", "setting": "B16-F1 melanoma; Mus musculus", "value": 8, "unit": "nM"},
      {"measurement": "EC50", "setting": "[4]; Mus musculus", "value": 15, "unit": "nM"}
    ]}
  ]
}
